Measured values from US20020198158A1, “Use of a cyclic ether for the preparation of medicaments affecting glucose tolerance” (priority 2000, published 2002).
“Also recorded” adds a separate entry of the source.

Tests used:
[1] = test system: GLP-1; assay: Plasma GLP-1 after gastric gavage; type: in vivo, mice; details: P<0.05
Method: (§1) Non-fasted NMRI mice (Bomholdtgaard Breeding and Research Center, Ry, Denmark), weighing 20-25 g are used throughout the study. The animals are fed a standard pellet diet and tap water ad libitum.
(§2) The mice are fasted overnight and anesthetized as above. After induction of anesthesia, D-glucose (150 mg/mouse in 0.5 ml) is administered alone or together with 1,5AnFru (150 mg/mouse) through a gavage tube (outer diameter 1.2 mm) placed in the stomach. Blood samples are taken after 15, 30, 45, 60, 90 and 120 minutes and treated as above.
Plasma insulin is determined radioimmunochemically with the use of a guinea pig anti-rat insulin antibody, ^125I-labelled porcine insulin as tracer and rat insulin as standard (Linco Research, St Charles, Mo., USA). Free and bound radioactivity is separated by use of an anti-IgG (goat anti-guinea pig) antibody (Linco). The sensitivity of the assay is 12 pmol/l and the coefficiency of variation is less than 3% at both low and high levels. Plasma glucose is determined with the glucose oxidase method. Plasma GLP-1 is measured by a radioimmunoassay after extraction of plasma samples with ethanol. 400 μl 0.05 mol/l sodium phosphate buffer, pH 7.5, containing 6% albumin and 0.1 mol/l NaCl is added to 100 μl mouse plasma on ice and mixed well. […]

[2] = test system: NMRI mice; assay: Intravenous glucose tolerance test; type: in vivo; details: for AUCinsulin (area under the insulin curve during the 50 min study period): anesthetized mice
Method: as §1
The mice are anesthetized with an intraperitoneal injection of midazolam (Dormicum^R, Hoffman-La-Roche, Basel, Switzerland, 0.4 mg/mouse) and a combination of fluanison (0.9 mg/mouse) and fentanyl (0.02 mg/mouse; Hypnorm^R, Janssen, Beerse, Belgium). Thereafter, a blood sample is taken from the retrobulbar, intraorbital, capillary plexus in heparinized tubes, whereafter D-glucose (British Drug Houses, Poole, UK; 1 g/kg) is injected rapidly intravenously either alone or together with 1,5AnFru (Danisco Ltd, Copenhagen, Denmark; 0.2 or 1 g/kg); in one series of experiments, 1,5AnFru is given alone (1 g/kg). The volume load is 10 μl/g body weight. New blood samples are taken after 1, 5, 10, 20, 30 and 50 minutes. In another set of experiments, 1,5AnFru is given by gastric gavage (0.2 g/kg) five minutes before the zero blood sample taken immediately before the intravenous injection of glucose as above. Blood samples are taken as above. Following immediate centrifugation at 4° C., plasma is separated and stored at −20° C. or until analysis.
(§3) Plasma insulin is determined radioimmunochemically with the use of a guinea pig anti-rat insulin antibody, ^125I-labelled porcine insulin as tracer and rat insulin as standard (Linco Research, St Charles, Mo., USA). Free and bound radioactivity is separated by use of an anti-IgG (goat anti-guinea pig) antibody (Linco). The sensitivity of the assay is 12 pmol/l and the coefficiency of variation is less than 3% at both low and high levels. Plasma glucose is determined with the glucose oxidase method. Plasma GLP-1 is measured by a radioimmunoassay after extraction of plasma samples with ethanol. 400 μl 0.05 mol/l sodium phosphate buffer, pH 7.5, containing 6% albumin and 0.1 mol/l NaCl is added to 100 μl mouse plasma on ice and mixed well. The mixture is then extracted with 70% ethanol (vol/vol, final dilution), and after vacuum centrifugation the residue is reconstituted in assay buffer and assayed as previously described (Ørskov et al., 1994). […] The sensitivity using this procedure is 5 pmol/l, and the intra-assay coefficient of variation is 10%.
(§4) Means±SEM are shown. Area under the curve for plasma insulin levels (AUCisulin) is calculated by the trapezoid rule. Statistical analyses are performed with the SPSS for Windows system. Statistical comparisons between groups are performed with Students t-test.

[3] = test system: NMRI mice; assay: Gastric glucose tolerance test; type: in vivo; details: gastric gavage glucose 150 mg/mouse with 1,5AnFru 150 mg/mouse
Method: as §1, §2, §3, §4

[4] = test system: isolated mouse islets; assay: Insulin secretion in vitro from isolated islets; type: cell-based; details: 60 min incubation
Method: Pancreatic islets are isolated from four mice with the collagenase isolation technique. In brief, the pancreas is filled retrogradely through the pancreatic duct with 3 ml of Hank's Balanced Salt Solution (Sigma), supplemented with 0.3 mg/ml of Collagenase P (activity 1.86 U/mg; Boehringer Mannheim Gmbh, Mannheim, Germany). The pancreas is subsequently removed and incubated in the same solution for 20 min at 37° C. After rinsing, the islets are handpicked under a stereomicroscope and incubated overnight in RPMI 1640 medium supplemented with 10% fetal calf serum, 2.05 mmol/l L-glutamine, 2.5 μg/ml amphotericin B (GIBCO BRL, Paisley, Scotland), 100 lU/ml penicillin and 100 μg/ml streptomycin (Biol Ind, Beit Haemek, Israel) at 37° C. in humidified air equilibrated with 5% CO2. […]
Plasma insulin is determined radioimmunochemically with the use of a guinea pig anti-rat insulin antibody, ^125I-labelled porcine insulin as tracer and rat insulin as standard (Linco Research, St Charles, Mo., USA). Free and bound radioactivity is separated by use of an anti-IgG (goat anti-guinea pig) antibody (Linco). […] Plasma glucose is determined with the glucose oxidase method. Plasma GLP-1 is measured by a radioimmunoassay after extraction of plasma samples with ethanol. […]

O=C1CO[C@H](CO)[C@@H](O)[C@@H]1O [1,5AnFru, 1,5-anhydro-D-fructose]
plasma GLP-1, 30 min value ([1]; 30 min after gastric gavage of glucose 150 mg/mouse with 1,5AnFru 150 mg/mouse): 78.2 ± 8.6 pmol/L
plasma GLP-1, 60 min value ([1]; 60 min after gastric gavage of glucose 150 mg/mouse with 1,5AnFru 150 mg/mouse): 28.8 ± 3.8 pmol/L
glucose-stimulated insulin secretion (insulin response to iv glucose) ([2]; 1,5AnFru 1 g/kg iv together with glucose 1 g/kg iv): inhibits
basal plasma levels of insulin or glucose ([2]; 1,5AnFru given alone iv, 1 g/kg): not affected
AUCinsulin (area under the insulin curve during the 50 min study period) ([2]; iv glucose 1 g/kg together with 1,5AnFru 0.2 g/kg iv): 14.6±1.9 nmol/l×50 min
AUCinsulin (area under the insulin curve during the 50 min study period) ([2]; iv glucose 1 g/kg together with 1,5AnFru 1 g/kg iv, P=0.021 vs glucose alone): 8.6±1.9 nmol/l×50 min
glucose elimination after intravenous glucose administration ([2]; iv glucose 1 g/kg with 1,5AnFru iv, 50 min study period): not affected; also recorded: without affecting
AUCinsulin during 60 min ([3]; P=0.018 vs control): 32.9 ± 2.6 nmol/L
AUCinsulin during the first 60 min after administration ([3]; P=0.018 vs controls): 32.9±2.6 nmol/l in 60 min
60 min plasma glucose value ([3]; P=0.021 vs controls): 15.5 ± 1.6 mmol/L
glucose-stimulated insulin secretion ([4]; 16.7 mmol/l 1,5AnFru together with 11.1 mmol/l glucose): inhibition of insulin secretion is observed; also recorded: inhibits
glucose-stimulated insulin secretion ([4]; 1,5AnFru at 11.1 mmol/l or below): does not affect
